In experiment [1] the target is T1, IP3 receptor of cerebellar microsome (Mus musculus, UniProt P11881).
T1 construct: Mouse cerebellum is a tissue that is rich in IP3 receptor; from tissue; host or cells: mouse (ddY) cerebellum, microsomal fraction
The experiment in a line: Inhibition of [3H]IP3 binding of cerebellar microsome by IP3 sponges. Particulars: 40 μg cerebellar microsome, 9.6 nM [3H]IP3, 100 μl (FIG. 4). As for the experimental part:
The inhibition effects of the IP3-binding polypeptides (IP3 sponges) on [H]IP3-binding activity of cerebellar microsome was analyzed as follows.
A microsomal fraction was prepared from the cerebella of mice ddY (Nippon SLC) mainly by following the method of Nakada et al. (Nakada S. et al., Biochem. J. 277:125–131, 1991). In 100 μl of binding buffer α, various concentrations of the IP3 sponges were added respectively to see the changes in the binding between the cerebellar microsome (40 μg) and 9.6 nM [^3H]-IP3 according to the above method (see Scatchard plot analysis).
Mouse cerebellum is a tissue that is rich in IP3 receptor and whose microsomal fraction has a [^3H]IP3-binding activity which is at least 50 times higher than those in other tissues (Maeda et al., 1990 (supra)). […] It was calculated that, there were about 0.92 pmol of IP3-binding site of cerebellum IP3 receptor and 0.96 pmol of [^3H]IP3 present in the 100 μl solution.

The target of experiment [2] is T2, IP3 receptor on cerebellar microsome (Mus musculus, UniProt P11881).
T2 construct: Mouse cerebellum is a tissue that is rich in IP3 receptor; from tissue; host or cells: mouse (ddY) cerebellum, microsomal fraction
T2 sequence (P11881 whole entry N1264K/P2675L): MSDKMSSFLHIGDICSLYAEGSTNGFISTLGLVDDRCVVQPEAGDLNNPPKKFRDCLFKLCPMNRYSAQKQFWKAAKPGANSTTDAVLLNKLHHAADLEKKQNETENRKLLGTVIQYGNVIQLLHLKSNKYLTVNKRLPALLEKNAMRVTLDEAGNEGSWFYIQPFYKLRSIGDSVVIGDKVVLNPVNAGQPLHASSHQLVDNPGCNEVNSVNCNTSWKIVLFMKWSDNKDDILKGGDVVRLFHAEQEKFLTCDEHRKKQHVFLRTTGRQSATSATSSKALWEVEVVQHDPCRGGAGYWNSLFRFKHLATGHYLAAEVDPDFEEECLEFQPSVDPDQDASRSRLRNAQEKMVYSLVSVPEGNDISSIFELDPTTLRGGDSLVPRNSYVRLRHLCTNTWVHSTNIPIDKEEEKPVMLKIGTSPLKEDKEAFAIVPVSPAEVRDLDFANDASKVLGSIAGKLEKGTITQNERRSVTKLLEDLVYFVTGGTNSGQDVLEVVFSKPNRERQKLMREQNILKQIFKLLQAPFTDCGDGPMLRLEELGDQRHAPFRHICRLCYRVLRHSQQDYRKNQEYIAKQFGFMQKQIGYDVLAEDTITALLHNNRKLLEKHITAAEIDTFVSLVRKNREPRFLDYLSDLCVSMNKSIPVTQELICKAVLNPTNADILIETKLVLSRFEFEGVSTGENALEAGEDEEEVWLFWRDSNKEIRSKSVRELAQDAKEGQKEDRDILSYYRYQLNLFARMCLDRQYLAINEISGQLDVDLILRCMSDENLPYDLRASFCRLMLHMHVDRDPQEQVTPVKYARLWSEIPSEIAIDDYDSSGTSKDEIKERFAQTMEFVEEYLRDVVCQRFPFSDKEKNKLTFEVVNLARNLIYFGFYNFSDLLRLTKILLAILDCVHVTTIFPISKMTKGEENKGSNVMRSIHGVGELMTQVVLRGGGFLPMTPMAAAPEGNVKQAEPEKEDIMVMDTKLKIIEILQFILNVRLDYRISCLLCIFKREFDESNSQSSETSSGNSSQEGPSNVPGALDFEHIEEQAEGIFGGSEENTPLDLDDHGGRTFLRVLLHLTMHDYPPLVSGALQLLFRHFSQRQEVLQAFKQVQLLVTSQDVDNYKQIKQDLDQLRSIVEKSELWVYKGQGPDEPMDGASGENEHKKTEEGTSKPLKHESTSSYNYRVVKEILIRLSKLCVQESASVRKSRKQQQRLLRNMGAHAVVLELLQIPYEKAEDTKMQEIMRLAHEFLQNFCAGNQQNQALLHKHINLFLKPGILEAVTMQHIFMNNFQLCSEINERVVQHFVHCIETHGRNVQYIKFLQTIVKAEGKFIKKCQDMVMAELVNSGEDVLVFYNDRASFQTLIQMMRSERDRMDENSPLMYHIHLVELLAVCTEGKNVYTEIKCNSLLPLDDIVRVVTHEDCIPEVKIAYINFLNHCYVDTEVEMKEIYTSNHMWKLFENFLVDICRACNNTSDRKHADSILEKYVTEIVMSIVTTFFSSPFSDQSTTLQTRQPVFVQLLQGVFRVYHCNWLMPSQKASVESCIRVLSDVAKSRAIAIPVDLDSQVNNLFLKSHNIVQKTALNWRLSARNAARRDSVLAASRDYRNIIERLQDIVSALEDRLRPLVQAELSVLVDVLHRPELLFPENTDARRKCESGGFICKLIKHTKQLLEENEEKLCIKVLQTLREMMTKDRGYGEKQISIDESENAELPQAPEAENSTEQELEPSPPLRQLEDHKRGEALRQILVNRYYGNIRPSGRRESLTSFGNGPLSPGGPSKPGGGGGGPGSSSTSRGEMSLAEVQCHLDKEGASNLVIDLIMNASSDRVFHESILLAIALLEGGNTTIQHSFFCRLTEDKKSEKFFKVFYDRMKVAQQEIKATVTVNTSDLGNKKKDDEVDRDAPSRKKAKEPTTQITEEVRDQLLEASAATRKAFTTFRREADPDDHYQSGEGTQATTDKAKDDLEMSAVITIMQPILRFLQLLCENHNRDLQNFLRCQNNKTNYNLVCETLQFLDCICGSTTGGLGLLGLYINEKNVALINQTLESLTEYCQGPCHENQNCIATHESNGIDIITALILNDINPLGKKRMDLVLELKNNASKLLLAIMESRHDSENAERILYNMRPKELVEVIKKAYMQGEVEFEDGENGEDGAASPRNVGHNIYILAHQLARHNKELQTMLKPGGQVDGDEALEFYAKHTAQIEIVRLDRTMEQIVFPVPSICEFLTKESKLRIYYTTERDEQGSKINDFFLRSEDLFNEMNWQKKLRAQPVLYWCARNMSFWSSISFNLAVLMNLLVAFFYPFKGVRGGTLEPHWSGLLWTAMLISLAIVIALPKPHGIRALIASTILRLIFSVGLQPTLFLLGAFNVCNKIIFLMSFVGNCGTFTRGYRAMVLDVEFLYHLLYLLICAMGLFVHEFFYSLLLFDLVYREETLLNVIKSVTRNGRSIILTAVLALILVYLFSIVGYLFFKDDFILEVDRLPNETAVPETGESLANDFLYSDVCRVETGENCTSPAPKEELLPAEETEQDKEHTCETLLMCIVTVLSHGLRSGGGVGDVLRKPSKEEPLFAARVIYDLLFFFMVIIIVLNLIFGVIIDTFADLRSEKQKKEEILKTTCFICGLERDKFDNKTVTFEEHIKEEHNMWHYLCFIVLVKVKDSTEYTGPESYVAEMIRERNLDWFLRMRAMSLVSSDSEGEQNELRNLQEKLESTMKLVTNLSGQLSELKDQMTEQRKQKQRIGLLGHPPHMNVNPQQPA
The experiment in a line: Inhibition of IP3-induced Ca2+ release (IICR) from cerebellar microsome, fura-2. The experiment is classed as biochemical. As for the experimental part:
To conduct a test of inhibiting IP3-induced Ca^2+ release, a microsomal fraction was prepared from mouse cerebellum as described in Example 3. The fraction was suspended in Buffer B, dispensed, and stored at −80° C. until it was used.
Composition of Buffer B was 110 mM KCl, 10 mM NaCl, 5 mM KH2PO4, 1 mM DDT, and 50 mM HEPES-KOH (pH 7.2) (containing a cocktail of protease inhibitors [0.1 mM PMSF, 10 μM leupeptin, 10 μM pepstatin A, 10 μM E-64] and 2 mM MgCl2).
An IP3-induced Ca^2+ release activity of cerebellar microsome was determined by using fura-2 (Molecular Probe) as a fluorescent Ca^2+ indicator. Specifically, excitations upon addition of IP3 at two wavelengths (340 nm and 380 nm) were measured with fluorescence spectrophotometer CAF110 (Nihon Bunko) to see the change in the fluorescent intensity ratio (F340/F380) at 500 nm.
IP3-induced Ca^2+ release from the cerebellar microsome is generally EC50=100–200 nM IP3. Cerebellar microsome (100 μg) was mixed with 500 μl of a release buffer (Buffer B containing 1 mM MgCl2, 2 μM fura-2, 1 mM DTT, 10 mM creatine phosphate, 40 U/ml creatine kinase, 1 μg/ml oligomycin, and the cocktail of protease inhibitors) in a measurement cuvette with a stirrer bar. The following reaction was conducted at 30° C. while constantly stirring with the stirrer bar.
One mM of ATP was added to the mixture in the cuvette to activate Ca^2+ pumping (Ca^2+-ATPase), whereby Ca^2+ was incorporated into the inner space of microsome (Ca^2+ loading). Ca^2+ loading was confirmed by monitoring until the decrease of fura-2 fluorescent level became constant. The change in the fura-2 fluorescent intensity ratio was measured (F340/F380) at a subthreshold level.
The effect of IP3 sponge on inhibiting IP3-induced Ca^2+ release activity of cerebellar microsome was analyzed as follows. After the addition of ATP, the curve of fura-2 fluorescent intensity was monitored until the decrease became constant. Then, various concentrations of IP3 sponges were added. After 1 min., 50 nM to 1 μM of IP3 was added to the reaction mixture to observe the change of fura-2 fluorescent intensity induced by the IP3.
The IP3 sponge concentration dependency was determined as follows. High affinity polypeptide G224 of 3.125, 6.25, 12.5, 25, 50, 100, 200 μg/ml were added to the reaction mixture, respectively. After about 1 min., 100 nM of IP3 was added to measure the Ca^2+ release activity induced by the IP3. The concentration dependency of low affinity polypeptide G224-m30 was determined by adding G224-m30 of 200, 400 and 500 μg/ml. After about 1 min., 100 nM of IP3 was added to measure the Ca^2+ release activity induced by the IP3. In addition, G224-m30 of 500 μg/ml was also added, and after about 1 min., 50 nM of IP3 was added to measure the Ca^2+ release activity induced by the IP3.

The nature of experiment [3]: [3H]IP3-binding activity, Scatchard plot analysis. As for the experimental part:
The IP3-binding activities of these fusion proteins were measured mainly by the method of Yoshikawa et al (1996).
Each fusion protein (IP3 sponge) (0.2 μg) was mixed with 100 μl of binding buffer-α (50 mM Tris-HCl (pH 8.0 at 4° C.), 1 mM EDTA, 1 mM β-mercaptoethanol) that contained 9.6 nM D-myo-[^3H](1,4,5)IP3 (777 GBq/mmol; DuPont NEN) (hereinafter, abbreviated as “[^3H]IP3”) and various concentrations of non-labeled D-myo-(1,4,5)IP3 (Dojindo) (hereinafter, abbreviated as “cold IP3”). The mixture was left to stand on ice for 10 minutes. To the mixture, 4 μl of 50 mg/ml γ-globulin (Sigma) (final concentration: 1 mg/ml) and 100 μl of 30% PEG 6000 (Sigma)/binding buffer-a solution (final concentration: 15%) were added. The resultant mixture was left to stand on ice for 5 minutes, and then centrifuged at 10,000×g at 2° C. for 5 minutes to collect polypeptide/PEG complex. PEG-precipitated [^3H]IP3-binding polypeptide was well solubilized with 180 μl solubilizer Solvable (DuPont NEN). The resultant was neutralized with 18 μl glacial acetic acid and then added to 5 ml liquid scintillation counter (Atomlight [DuPont NEN]) to measure the radioactivity (first radioactivity). Non-specific binding of each protein was determined by measuring the second radioactivity in the presence of 2 μM or 10 μM cold IP3. Then, a specific binding value of each protein was obtained by subtracting the second radioactivity (non-specific binding value) from the first radioactivity values.
Scatchard plot analysis was conducted under the following conditions. For low-affinity polypetides (G224-m30 and control GST), the binding experiment was conducted in 100 μl binding buffer a by adding 9.6 nM [^3H]IP3 (DuPont NEN) and 10–20 nM of cold IP3 to 2 μg of IP3-binding polypeptide, and by adding 9.6 nM [^3H]IP3 (DuPont NEN) and 50 nM-2 μM of cold IP3 to 0.01 μg IP3-binding polypeptide. For high-affinity IP3 sponges (G224 and G224-m49), binding experiment was conducted with 0.02 μg IP3 sponges at [^3H]-IP3 concentrations of 0.15, 0.3, 0.6, 1.2, 2.4, 4.8 and 9.6 nM without adding cold IP3.

The conditions of experiment [4]: cited from earlier work.
Experiment [5] is described as follows: [3H]IP3-binding activity, Scatchard plot analysis. The source holds these as a separate data set.
Setting [6] is: purified protein, [3H]IP3 binding.
Where [7] appears, read: purified IP3 receptor, Maeda et al. 1990.

In general, Kd refers to the free concentration of one partner at which half of the binding sites on the other are occupied at equilibrium, for simple one-to-one binding.

Where “and” joins values, the source holds several entries; their conditions need not be identical. Equal values may be shown once. Read-outs that look alike come from different tables or passages of the source.

Regarding “G224m30: G224 introduced with K508A mutation; low affinity IP3-binding polypeptide”, the “IC50 of IP3-binding inhibition” value in experiment [1] was found to be 100 µg/mL. Further, the “effect on inhibiting Ca2+ release versus control” value in experiment [2] (500 μg/ml, 50 nM IP3) is given as “Little difference”. Besides, in experiment [2] (500 μg/ml, 100 nM IP3), the “inhibiting effect on Ca2+ release” value is recorded as “no inhibiting effect”. The same substance showed a Bmax in experiment [3] (purified protein) of 3.0 pmol/μg purified protein. For the same substance, the Kd in experiment [3] (setting [6]) was 330 nM; in experiment [3] (purified protein, [3H]IP3 binding, listed as G224-m30) it was about 330 nM.
For the substance “N4-T604: protein obtained by deleting amino acids 1–223 of T604; amino acids 224–604”, in experiment [3] (relative to T604), the “activity, times that of the original T604” value was “about 3 times”.
For “T734: N-terminal 734 amino acids of mouse Type-1 IP3 receptor (mIP3R1)”, the Bmax in experiment [4] (E. coli soluble fraction, Yoshikawa et al. 1996) is listed as 46 pmol/mg protein. For the same substance, the Kd in experiment [4] (crude cell lysates, Yoshikawa et al. 1996) was 50 ± 2.4 nM.
For “Amino acid region 224–579: 356-residue polypeptide almost corresponding to the IP3-binding core region”, in experiment [4] (Yoshikawa et al. 1996), the Kd is 2.3 nM.
As to “G224: fusion polypeptide of GST and amino acids 224–604 (M-224 to K-604) of IP3 receptor”, the “IC50 of IP3-binding inhibition” value in experiment [1] is reported as “about 10 μg/ml”. Moreover, the “concentration required for 50% inhibition of IP3-induced Ca2+ release” value in experiment [2] (100 nM IP3 (FIG. 7)) is recorded as “about 20 μg/ml”. The “inhibition of IP3-induced Ca2+ release” value in experiment [2] (100 μg/ml, 100 nM IP3 (FIG. 6F)) is “almost completely inhibited”. In experiment [3], the “binding to (1,4,5)IP3 and (2,4,5)IP3” value is on record as “binds well”. Besides, in experiment [3] (purified GST fusion protein (FIG. 3A, 3B)), the Kd was found to be 0.083 nM. For the same substance, the Bmax in experiment [3] (purified protein) amounted to 1.6 pmol/μg purified protein. Further, the “affinity, times higher than that of polypeptide T734” value in experiment [3] (relative to T734) stood at 500 times.
“Purified IP3R: purified natural IP3 receptor, Maeda et al. 1990”: in experiment [4] (setting [7]), the Bmax is listed as 2.1 pmol/μg purified protein and the Kd was 83 nM.
Turning to “T604: polypeptide of amino acids 1–604 (M-1 to K-604) of mouse Type-1 IP3 receptor”, the Kd in experiment [3] (setting [6]) came to 7.6 nM; in experiment [5] (3 μg T604 soluble fraction, 9.6 nM [3H]IP3, cold IP3 competition (FIG. 2C)) it was 45 ± 7.6 nM; in experiment [5] (crude cell lysate / E. coli soluble fraction, 9.6 nM [3H]IP3 competed with cold IP3), 45 nM. The Bmax in experiment [5] (E. coli soluble fraction) was 690 pmol/mg protein and 690±64 pmol/mg protein.
